Assay results as given in patent US20150259371A1, “METHODS AND COMPOUNDS FOR INHIBITING GLYCOSYLTRANSFERASES” (SIMON FRASER UNIVERSITY, priority 2010, published 2015).
“Also recorded” adds a separate entry of the source. Where a name gives a salt, the structure may show the parent alone. One block for each compound: values may come before it.

Assays:
[1] = tested on: sialyl-Lewis X (sLeX) expression in HepG2 cells; test: Immunoblot and lectin blot of HepG2 lysates; format: cell-based, human
Procedure: More specifically, monolayers of Hep G2 cells were grown to about 75% confluency in DMEM containing 10% FBS before they were switched to serum free media for 10 h. FBS-free conditions were utilized to limit the amount of fucose which could be made available to cells upon degradation of serum glycoproteins. Cells were subsequently exposed to peracetylated 5-thio-L-fucose (5-T-Fuc) in serum free media for 48 h after which the media were collected, gently centrifuged (800 rpm, 10 min, 4° C.) to remove dead cells, and concentrated (˜10-fold) by centrifugal filration (Amicon, NMWCO 3000 daltons). Cells were washed with cold PBS prior to harvesting them in PBS+0.5% SDS. Proteins were solubilised upon sonication (2 blasts, 10 sec, 15% power) and protein concentrations were determined for all samples by the DC protein concentration assay (BioRad). Samples were normalized prior to analysis. Identical amounts of proteins were analyzed for all lectin-blotting experiments. Cell extracts and conditioned media containing secreted proteins were all analyzed on 8% polyacrylamide gels (FIG. 10).
Monolayers of HepG2 cells were exposed to 50 μM 5-T-Fuc for varying lengths of time before they were harvested as described above. When necessary, fresh media and inhibitors were added after 24 h. Alternatively, cells were exposed to 5-T-Fuc for 24 h after which the media was replaced and cells were harvested at the indicated time-points (FIG. 11).

[2] = tested on: core (α1,6)-fucosylation in CHO K1 cells; test: Aleura aurantia lectin blot of CHO K1 cells; format: cell-based; details: CHO K1, 48 h
[3] = tested on: anti-O-GlcNAc antibody CTD110.6; test: Blocking of anti-O-GlcNAc antibody binding to modified nup62; details: 0-3 mM
Procedure: Blocking antibody interactions: Recombinantly modified nup62 was run on a gel and transferred onto nitrocellulose membrane. CTD110.6 at the appropriate dilution was incubated with 0-3 mM Me-GlcNAc or Me-5SGlcNAc for 1 h prior to applying to the membrane overnight at 4° C. The standard procedure for western blots was subsequently followed.

[4] = target: T1, OGT (Homo sapiens, UniProt O15294); test: OGT transfer: UDP-sugar as donor, nup62 acceptor, UDP production by CE; format: biochemical
T1 construct: made in house
Procedure: Capillary electrophoresis (CE): CE was performed on a ProteomeLab PA800 (Beckman-Coulter) using fused silica capillaries of […]×44 cm (to detector). The running buffer was 40 mM Na2B4O7 (Sigma), pH 9.5, containing 1.0% (wv) polyethylene glycol (MW 20,000; Fluka) and filtered prior to use. The capillary was conditioned by washing with 1 N NaOH (2 min, 20 psi), 18 MΩ H2O (3 min, 20 psi) and running buffer (5 min, 40 psi). After injecting a short (15 nL) H2O plug, samples were electrostatically introduced and pre-concentrated at the anode by applying a potential of -0.5 kV for 10 s according to the field-amplified sample injection technique described by Chien and Burgi^39. […] Electropherograms were derived by measuring the absorbance at 254 (+/−10) nm at a rate of 4 Hz. […]
OGT transfer: The ability of OGT (which was over-expressed and purified as described in Ref. ^40) to transfer UDP-5SGlcNAc was tested using recombinant nup62 as the acceptor. […] Production of UDP was monitored at 254 nm; the concentration was determined from a standard curve of UDP standards, which were prepared in triplicate using the same procedure as the reactions, at a concentration of between […] Controls in the absence of nup62 were subtracted to account for OGT-catalyzed hydrolysis of the UDP-sugars.

[5] = target: T1, OGT; details: literature refs 40, 53; read-out: Km of natural substrate for OGT; cited from earlier work

T1 sequence (O15294 whole entry): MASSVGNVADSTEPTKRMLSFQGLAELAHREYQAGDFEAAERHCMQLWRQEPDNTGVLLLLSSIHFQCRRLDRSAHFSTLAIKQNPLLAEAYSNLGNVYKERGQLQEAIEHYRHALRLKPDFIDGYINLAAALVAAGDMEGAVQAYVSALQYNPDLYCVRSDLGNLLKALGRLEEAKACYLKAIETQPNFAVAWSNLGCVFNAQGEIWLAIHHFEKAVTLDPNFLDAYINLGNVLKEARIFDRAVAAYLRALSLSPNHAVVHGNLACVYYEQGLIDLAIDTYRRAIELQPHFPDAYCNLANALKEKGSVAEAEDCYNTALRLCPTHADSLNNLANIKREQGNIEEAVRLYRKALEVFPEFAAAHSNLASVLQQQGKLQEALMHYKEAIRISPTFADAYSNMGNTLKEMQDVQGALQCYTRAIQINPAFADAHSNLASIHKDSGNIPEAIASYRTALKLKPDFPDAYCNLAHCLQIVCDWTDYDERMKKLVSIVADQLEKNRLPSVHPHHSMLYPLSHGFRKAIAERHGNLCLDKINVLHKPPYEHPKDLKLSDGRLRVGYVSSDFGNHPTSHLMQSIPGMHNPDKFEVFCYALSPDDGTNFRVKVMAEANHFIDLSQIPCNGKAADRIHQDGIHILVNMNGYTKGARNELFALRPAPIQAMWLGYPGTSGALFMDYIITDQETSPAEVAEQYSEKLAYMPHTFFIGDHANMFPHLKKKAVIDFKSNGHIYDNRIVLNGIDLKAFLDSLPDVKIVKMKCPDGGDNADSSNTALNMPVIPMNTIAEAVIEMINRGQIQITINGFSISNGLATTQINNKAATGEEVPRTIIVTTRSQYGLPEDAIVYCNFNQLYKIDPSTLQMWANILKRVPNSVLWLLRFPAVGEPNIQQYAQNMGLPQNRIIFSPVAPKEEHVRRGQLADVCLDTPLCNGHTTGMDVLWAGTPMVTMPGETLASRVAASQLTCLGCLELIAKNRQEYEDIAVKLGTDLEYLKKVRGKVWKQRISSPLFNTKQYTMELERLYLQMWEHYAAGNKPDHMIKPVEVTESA

Compound: C[C@H](S)[C@@H](O)[C@@H](O)[C@H](O)C=O [Compound 5-T-Fuc, 5-thiofucose]
sLeX expression, time course ([1]; HepG2, 50 μM): reduces sLeX expression in a time-dependant fashion
Aleura aurantia lectin reactivity ([1]; HepG2, 48 h): no decrease in Aleura aurantia lectin reactivity was observed
Maackia amurensis lectin binding ([1]; HepG2, 48 h): dose-dependent increase in Maackia amurensis lectin binding
time to full recovery of sLeX expression after exposure ([1]; HepG2, after a 24 h exposure): ≤ 24 h
sLeX expression, dose response ([1]; HepG2, serum free media, 48 h, anti-CD15s): significant, dose-dependent decrease in sLe^X expression; also recorded: reduces sialyl-lewis X expression in HepG2 liver cells
core-fucosylated antigens by Aleura aurantia lectin [2]: no further decrease in lectin reactivity was observed above inhibitor concentrations of 5 μM; also recorded: reduction in core (α1,6)-fucosylation

Compound: CO[C@H]1S[C@H](CO)[C@@H](O)[C@H](O)[C@H]1NC(C)=O [Compound 16, Methyl 2-acetamido-2-deoxy-5-thio-a-D-glucopyranoside]
blocking of CTD110.6 binding [3]: blocks binding almost as well as Me-GlcNAc

fold worse donor substrate for OGT as compared to UDP-GlcNAc [4]: approximately 14 fold
Compound: CC(=O)N[C@@H]1[C@@H](O)[C@H](O)[C@@H](CO)S[C@@H]1OP(=O)(O)OP(=O)(O)OC[C@H]1O[C@@H](n2ccc(=O)[nH]c2=O)[C@H](O)[C@@H]1O [UDP-5SGlcNAc, 5′-(2-acetamido-2-deoxy-5-thio-a-D-glucopyranosyl)diphosphate triethylammonium salt]

Compound: uridine diphospho-N-acetylglucosamine [UDP-GlcNAc]
Km [5]: 2 to 7 µM
